Test results taken from publication PMC12420824, “Discovery of a selective alpha-kinase 1 inhibitor for the rare genetic disease ROSAH syndrome” (Nature Communications, 2025).
“And” between values parts separate entries of the source, which are not always exact repeats. Equal entries are not always repeated.

Key:
EIF2AK4 = EIF2AK4 (Homo sapiens, UniProt Q9P2K8); experiment: HotSpot kinase assay; details: read-out: % Enzyme Activity (relative to DMSO control), 10 uM
Description: (§1) Additionally, a 10-dose dilution series of staurosporine and other enzyme-appropriate compounds were included as positive control inhibitors.

RSK4 = RSK4 (Homo sapiens, UniProt Q9UK32); experiment: HotSpot kinase assay; details: read-out: % Enzyme Activity (relative to DMSO control), 10 uM
Description: as §1

[1] = system: HEK-293 cells transfected with GFP-TIFA; experiment: DF-006-induced TIFAsome formation
Protocol: Curve fitting and IC50 value calculations were performed with GraphPad Prism 6.
HEK-293 cells were purchased from the Cell Bank of The Chinese Academy of Sciences and routinely cultured in DMEM/High-Glucose (Hyclone). For TIFAsome analyses, the coding sequence for the GFP-TIFA fusion protein was cloned into the pcDNA3.1 plasmid. […] Each condition was conducted in sextuplicate. Cells were fixed with 4% paraformaldehyde and stained with DAPI (Shanghai Zhenghuang, Shanghai, China; C1005). Fluorescent images were acquired using a Motic upright fluorescent microscope (PA53 BIO FS6).

ROCK1 = ROCK1 (Homo sapiens, UniProt Q13464); experiment: HotSpot kinase assay; details: read-out: % Enzyme Activity (relative to DMSO control), 10 uM
Description: as §1

FGFR1 = FGFR1 (Homo sapiens, UniProt P11362); experiment: HotSpot kinase assay; details: read-out: % Enzyme Activity (relative to DMSO control), 10 uM
Description: as §1

RAF1 = RAF1 (Homo sapiens, UniProt P04049); experiment: HotSpot kinase assay; details: read-out: % Enzyme Activity (relative to DMSO control), 10 uM
MEK3 = MEK3 (Homo sapiens, UniProt P46734); experiment: HotSpot kinase assay; details: read-out: % Enzyme Activity (relative to DMSO control), 10 uM
MEK3, sequence (P46734 whole entry): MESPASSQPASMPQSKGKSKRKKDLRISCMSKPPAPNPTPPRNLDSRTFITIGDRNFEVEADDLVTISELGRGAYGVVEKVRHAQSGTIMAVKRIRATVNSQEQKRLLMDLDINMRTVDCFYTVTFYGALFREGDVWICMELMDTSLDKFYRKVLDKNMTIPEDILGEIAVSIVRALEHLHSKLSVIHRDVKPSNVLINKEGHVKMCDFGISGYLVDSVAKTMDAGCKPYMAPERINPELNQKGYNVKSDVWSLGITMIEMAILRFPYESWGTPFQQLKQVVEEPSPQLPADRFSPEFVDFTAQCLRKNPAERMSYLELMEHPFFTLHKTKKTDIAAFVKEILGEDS

TGFBR2 = TGFBR2 (Homo sapiens, UniProt P37173); experiment: HotSpot kinase assay; details: read-out: % Enzyme Activity (relative to DMSO control), 10 uM
TGFBR2, sequence (P37173 23-567): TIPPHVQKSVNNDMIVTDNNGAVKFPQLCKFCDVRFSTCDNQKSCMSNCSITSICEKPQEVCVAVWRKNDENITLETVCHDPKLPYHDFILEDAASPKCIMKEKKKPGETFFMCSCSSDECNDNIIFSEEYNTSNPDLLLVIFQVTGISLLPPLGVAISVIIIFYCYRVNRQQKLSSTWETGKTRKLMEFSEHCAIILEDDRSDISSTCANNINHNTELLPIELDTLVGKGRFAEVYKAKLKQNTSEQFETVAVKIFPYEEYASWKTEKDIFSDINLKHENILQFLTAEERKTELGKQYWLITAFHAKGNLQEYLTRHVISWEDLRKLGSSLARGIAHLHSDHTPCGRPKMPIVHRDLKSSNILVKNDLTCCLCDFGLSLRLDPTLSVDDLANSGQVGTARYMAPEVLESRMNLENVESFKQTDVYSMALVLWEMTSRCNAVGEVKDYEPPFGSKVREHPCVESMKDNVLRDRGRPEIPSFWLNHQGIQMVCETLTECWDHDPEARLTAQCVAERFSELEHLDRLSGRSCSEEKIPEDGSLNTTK
Description: as §1

SIK1 = SIK1 (Homo sapiens, UniProt P57059); experiment: HotSpot kinase assay; details: read-out: % Enzyme Activity (relative to DMSO control), 10 uM
DYRK1B = DYRK1B (Homo sapiens, UniProt Q9Y463); experiment: HotSpot kinase assay; details: read-out: % Enzyme Activity (relative to DMSO control), 10 uM
Description: as §1

JAK3 = JAK3 (Homo sapiens, UniProt P52333); experiment: HotSpot kinase assay; details: read-out: % Enzyme Activity (relative to DMSO control), 10 uM
JAK3, sequence (P52333 whole entry): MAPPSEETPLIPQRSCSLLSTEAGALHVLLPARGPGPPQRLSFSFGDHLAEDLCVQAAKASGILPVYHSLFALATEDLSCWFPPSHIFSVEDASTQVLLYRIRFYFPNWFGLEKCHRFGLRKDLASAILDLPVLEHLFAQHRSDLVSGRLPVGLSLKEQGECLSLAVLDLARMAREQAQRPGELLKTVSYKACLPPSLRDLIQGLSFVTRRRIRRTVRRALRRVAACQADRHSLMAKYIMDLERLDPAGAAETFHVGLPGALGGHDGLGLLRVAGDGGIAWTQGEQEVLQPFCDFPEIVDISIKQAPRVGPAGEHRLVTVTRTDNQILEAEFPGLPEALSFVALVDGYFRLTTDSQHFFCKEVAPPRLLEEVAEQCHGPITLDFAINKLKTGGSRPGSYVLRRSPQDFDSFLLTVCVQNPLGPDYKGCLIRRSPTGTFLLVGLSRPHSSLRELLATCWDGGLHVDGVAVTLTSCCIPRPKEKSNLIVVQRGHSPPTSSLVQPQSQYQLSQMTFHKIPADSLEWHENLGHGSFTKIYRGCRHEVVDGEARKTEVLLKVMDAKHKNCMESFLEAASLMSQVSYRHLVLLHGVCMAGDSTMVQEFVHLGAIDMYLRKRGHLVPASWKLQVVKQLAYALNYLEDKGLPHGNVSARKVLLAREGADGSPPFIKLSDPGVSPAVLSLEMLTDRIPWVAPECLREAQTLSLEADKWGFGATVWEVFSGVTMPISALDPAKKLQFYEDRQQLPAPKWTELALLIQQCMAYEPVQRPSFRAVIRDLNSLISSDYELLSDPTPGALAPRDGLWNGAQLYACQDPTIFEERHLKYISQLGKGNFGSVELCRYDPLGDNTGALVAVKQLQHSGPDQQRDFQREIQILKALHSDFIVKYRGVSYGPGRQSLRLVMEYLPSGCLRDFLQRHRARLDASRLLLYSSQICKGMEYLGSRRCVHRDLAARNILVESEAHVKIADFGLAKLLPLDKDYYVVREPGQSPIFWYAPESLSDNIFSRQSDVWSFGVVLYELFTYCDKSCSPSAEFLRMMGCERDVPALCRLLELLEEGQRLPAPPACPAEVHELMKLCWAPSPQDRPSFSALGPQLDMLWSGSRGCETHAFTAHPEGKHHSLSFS

STK38/NDR1 = STK38/NDR1 (Homo sapiens, UniProt Q15208); experiment: HotSpot kinase assay; details: read-out: % Enzyme Activity (relative to DMSO control), 10 uM
STK38/NDR1, sequence (Q15208 whole entry): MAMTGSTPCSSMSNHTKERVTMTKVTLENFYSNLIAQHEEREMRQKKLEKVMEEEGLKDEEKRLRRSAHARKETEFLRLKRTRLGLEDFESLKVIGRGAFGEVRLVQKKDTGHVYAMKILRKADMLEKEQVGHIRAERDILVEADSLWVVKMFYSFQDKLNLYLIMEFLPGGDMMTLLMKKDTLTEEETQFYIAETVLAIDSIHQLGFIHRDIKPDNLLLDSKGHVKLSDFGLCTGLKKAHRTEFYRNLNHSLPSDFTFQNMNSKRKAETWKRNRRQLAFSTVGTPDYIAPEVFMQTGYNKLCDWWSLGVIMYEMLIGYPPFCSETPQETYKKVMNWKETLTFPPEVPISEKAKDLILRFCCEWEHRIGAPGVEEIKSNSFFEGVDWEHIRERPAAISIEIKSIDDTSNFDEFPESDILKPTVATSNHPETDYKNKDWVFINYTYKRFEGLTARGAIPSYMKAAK
Description: as §1

PDK1/PDHK1 = PDK1/PDHK1 (Homo sapiens, UniProt Q15118); experiment: HotSpot kinase assay; details: read-out: % Enzyme Activity (relative to DMSO control), 10 uM
HIPK2 = HIPK2 (Homo sapiens, UniProt Q9H2X6); experiment: HotSpot kinase assay; details: read-out: % Enzyme Activity (relative to DMSO control), 10 uM
Description: as §1

YSK4/MAP3K19 = YSK4/MAP3K19 (Homo sapiens, UniProt Q56UN5); experiment: HotSpot kinase assay; details: read-out: % Enzyme Activity (relative to DMSO control), 10 uM
Description: as §1

DYRK2 = DYRK2 (Homo sapiens, UniProt Q92630); experiment: HotSpot kinase assay; details: read-out: % Enzyme Activity (relative to DMSO control), 10 uM
DYRK2, sequence (Q92630 whole entry): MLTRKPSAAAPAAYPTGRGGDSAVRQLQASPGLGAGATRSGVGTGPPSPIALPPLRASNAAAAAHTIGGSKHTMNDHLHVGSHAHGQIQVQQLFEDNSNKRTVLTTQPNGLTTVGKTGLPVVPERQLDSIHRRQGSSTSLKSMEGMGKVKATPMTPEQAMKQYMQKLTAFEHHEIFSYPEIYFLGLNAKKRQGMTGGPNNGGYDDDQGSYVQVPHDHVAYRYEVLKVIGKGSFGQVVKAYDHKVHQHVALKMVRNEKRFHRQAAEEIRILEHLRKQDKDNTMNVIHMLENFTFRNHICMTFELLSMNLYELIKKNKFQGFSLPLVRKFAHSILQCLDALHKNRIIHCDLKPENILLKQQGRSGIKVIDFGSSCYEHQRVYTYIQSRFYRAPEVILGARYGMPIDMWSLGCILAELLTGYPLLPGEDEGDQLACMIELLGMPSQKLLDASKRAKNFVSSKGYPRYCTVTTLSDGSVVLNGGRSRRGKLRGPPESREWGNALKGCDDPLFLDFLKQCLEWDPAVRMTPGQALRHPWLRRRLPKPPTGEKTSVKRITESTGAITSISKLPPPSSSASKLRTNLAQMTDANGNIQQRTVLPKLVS
Description: as §1

CDK1/cyclin B = CDK1/cyclin B (Homo sapiens, UniProt P06493); experiment: HotSpot kinase assay; details: read-out: % Enzyme Activity (relative to DMSO control), 10 uM
PBK/TOPK = PBK/TOPK (Homo sapiens, UniProt Q96KB5); experiment: HotSpot kinase assay; details: read-out: % Enzyme Activity (relative to DMSO control), 10 uM
Description: as §1

CDK2/cyclin O = CDK2/cyclin O (Homo sapiens, UniProt P24941); experiment: HotSpot kinase assay; details: read-out: % Enzyme Activity (relative to DMSO control), 10 uM
TXK = TXK (Homo sapiens, UniProt P42681); experiment: HotSpot kinase assay; details: read-out: % Enzyme Activity (relative to DMSO control), 10 uM
TXK, sequence (P42681 whole entry): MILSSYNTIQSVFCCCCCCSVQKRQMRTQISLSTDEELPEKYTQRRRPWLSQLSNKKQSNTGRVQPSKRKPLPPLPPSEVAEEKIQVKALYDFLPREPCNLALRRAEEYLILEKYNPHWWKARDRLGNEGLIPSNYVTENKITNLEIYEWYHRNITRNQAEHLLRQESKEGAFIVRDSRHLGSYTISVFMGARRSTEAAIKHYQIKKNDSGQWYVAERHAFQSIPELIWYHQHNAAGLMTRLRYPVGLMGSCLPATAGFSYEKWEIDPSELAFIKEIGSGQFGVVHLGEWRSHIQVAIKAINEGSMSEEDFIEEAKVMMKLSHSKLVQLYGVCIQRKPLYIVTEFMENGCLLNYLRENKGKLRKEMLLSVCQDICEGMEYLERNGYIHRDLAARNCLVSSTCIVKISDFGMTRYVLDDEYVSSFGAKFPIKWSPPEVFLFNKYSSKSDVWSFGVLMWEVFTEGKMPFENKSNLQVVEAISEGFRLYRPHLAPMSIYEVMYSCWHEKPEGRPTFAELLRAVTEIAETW
Description: as §1

ABL2/ARG = ABL2/ARG (Homo sapiens, UniProt P42684); experiment: HotSpot kinase assay; details: read-out: % Enzyme Activity (relative to DMSO control), 10 uM
SGK2 = SGK2 (Homo sapiens, UniProt Q9HBY8); experiment: HotSpot kinase assay; details: read-out: % Enzyme Activity (relative to DMSO control), 10 uM
Description: as §1

CDK8/cyclin C = CDK8/cyclin C (Homo sapiens, UniProt P49336); experiment: HotSpot kinase assay; details: read-out: % Enzyme Activity (relative to DMSO control), 10 uM
CDK8/cyclin C, sequence (P49336 whole entry): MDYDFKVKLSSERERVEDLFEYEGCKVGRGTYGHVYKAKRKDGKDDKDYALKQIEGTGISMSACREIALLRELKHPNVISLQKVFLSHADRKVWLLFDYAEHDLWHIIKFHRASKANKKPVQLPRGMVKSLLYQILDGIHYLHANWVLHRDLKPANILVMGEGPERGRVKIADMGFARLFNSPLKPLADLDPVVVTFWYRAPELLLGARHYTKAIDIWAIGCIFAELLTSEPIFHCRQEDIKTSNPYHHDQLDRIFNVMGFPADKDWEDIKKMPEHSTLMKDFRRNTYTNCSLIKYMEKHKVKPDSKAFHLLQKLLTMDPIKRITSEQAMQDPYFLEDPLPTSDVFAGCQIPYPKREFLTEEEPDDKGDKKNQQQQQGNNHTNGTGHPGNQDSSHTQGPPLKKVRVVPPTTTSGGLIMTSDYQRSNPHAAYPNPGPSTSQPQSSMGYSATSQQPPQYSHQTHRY
CDK8/cyclin C, sequence (P24863 whole entry partner): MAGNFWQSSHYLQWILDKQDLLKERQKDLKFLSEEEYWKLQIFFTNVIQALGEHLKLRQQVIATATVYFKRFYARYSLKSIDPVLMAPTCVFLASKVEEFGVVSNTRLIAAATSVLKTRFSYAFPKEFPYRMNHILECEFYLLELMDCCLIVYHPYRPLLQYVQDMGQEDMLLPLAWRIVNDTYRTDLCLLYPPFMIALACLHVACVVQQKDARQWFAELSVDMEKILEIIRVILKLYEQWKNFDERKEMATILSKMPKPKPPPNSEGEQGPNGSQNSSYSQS
Description: as §1

MSSK1/STK23 = MSSK1/STK23 (Homo sapiens, UniProt Q9UPE1); experiment: HotSpot kinase assay; details: read-out: % Enzyme Activity (relative to DMSO control), 10 uM
STK16 = STK16 (Homo sapiens, UniProt O75716); experiment: biochemical; details: read-out: % Enzyme Activity (relative to DMSO control), 10 uM
Description: as §1

LATS2 = LATS2 (Homo sapiens, UniProt Q9NRM7); experiment: HotSpot kinase assay; details: read-out: % Enzyme Activity (relative to DMSO control), 10 uM
Description: as §1

GSK3b = GSK3b (Homo sapiens, UniProt P49841); experiment: HotSpot kinase assay; details: read-out: % Enzyme Activity (relative to DMSO control), 10 uM
Description: as §1

TLK2 = TLK2 (Homo sapiens, UniProt Q86UE8); experiment: HotSpot kinase assay; details: read-out: % Enzyme Activity (relative to DMSO control), 10 uM
Description: as §1

AMPK(A2/B1/G1) = AMPK(A2/B1/G1) (Homo sapiens, UniProt P54646); experiment: HotSpot kinase assay; details: read-out: % Enzyme Activity (relative to DMSO control), 10 uM
Description: as §1

IGF1R = IGF1R (Homo sapiens, UniProt P08069); experiment: HotSpot kinase assay; details: read-out: % Enzyme Activity (relative to DMSO control), 10 uM
STK39/STLK3 = STK39/STLK3 (Homo sapiens, UniProt Q9UEW8); experiment: HotSpot kinase assay; details: read-out: % Enzyme Activity (relative to DMSO control), 10 uM
Description: as §1

HCK = HCK (Homo sapiens, UniProt P08631); experiment: HotSpot kinase assay; details: read-out: % Enzyme Activity (relative to DMSO control), 10 uM
CK2a = CK2a (Homo sapiens, UniProt P68400); experiment: HotSpot kinase assay; details: read-out: % Enzyme Activity (relative to DMSO control), 10 uM
CK2a, sequence (P68400 whole entry): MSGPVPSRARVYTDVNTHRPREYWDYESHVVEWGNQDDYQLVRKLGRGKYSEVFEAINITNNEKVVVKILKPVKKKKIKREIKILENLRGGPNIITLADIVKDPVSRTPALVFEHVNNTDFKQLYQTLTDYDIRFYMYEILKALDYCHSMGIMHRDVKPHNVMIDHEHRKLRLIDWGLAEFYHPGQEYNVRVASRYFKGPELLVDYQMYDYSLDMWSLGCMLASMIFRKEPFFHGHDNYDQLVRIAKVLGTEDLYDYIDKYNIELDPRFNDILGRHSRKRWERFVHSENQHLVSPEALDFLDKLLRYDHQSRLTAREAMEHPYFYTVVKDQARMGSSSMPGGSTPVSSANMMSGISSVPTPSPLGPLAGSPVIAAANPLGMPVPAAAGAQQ
Description: as §1

PDGFRa = PDGFRa (Homo sapiens, UniProt P16234); experiment: HotSpot kinase assay; details: read-out: % Enzyme Activity (relative to DMSO control), 10 uM
Description: as §1

TESK2 = TESK2 (Homo sapiens, UniProt Q96S53); experiment: HotSpot kinase assay; details: read-out: % Enzyme Activity (relative to DMSO control), 10 uM
ZIPK/DAPK3 = ZIPK/DAPK3 (Homo sapiens, UniProt O43293); experiment: HotSpot kinase assay; details: read-out: % Enzyme Activity (relative to DMSO control), 10 uM
Description: as §1

NEK7 = NEK7 (Homo sapiens, UniProt Q8TDX7); experiment: HotSpot kinase assay; details: read-out: % Enzyme Activity (relative to DMSO control), 10 uM
Description: as §1

JNK3 = JNK3 (Homo sapiens, UniProt P53779); experiment: HotSpot kinase assay; details: read-out: % Enzyme Activity (relative to DMSO control), 10 uM
Description: as §1

MST1/STK4 = MST1/STK4 (Homo sapiens, UniProt Q13043); experiment: HotSpot kinase assay; details: read-out: % Enzyme Activity (relative to DMSO control), 10 uM

## C#C[C@@](C)(c1ccc(Cl)cc1)c1csc(NC(=O)c2c(F)cc(N3CCNCC3)cc2F)n1 (stereo in doubt) [DF-003]
EIF2AK4
  remaining activity at 10 µM: 101%
RSK4
  remaining activity at 10 µM: 88.3%
[1]; 10 nM to 1 μM, 1 μM DF-006 1 h
  effect on DF-006-induced TIFAsome formation: potently suppressed DF-006-induced TIFAsome formation
[1]; 200 nM DF-003+1 μM DF-006
  Cells with TIFAsomes /GFP positive cells (%): 2.74% and 2.86% and 1.45% and 4.74% and 3.09%
[1]; 1 μM DF-003+1 μM DF-006
  Cells with TIFAsomes /GFP positive cells (%): 1.25% and 0% and 3.05% and 2.92% and 5.22%
ROCK1
  remaining activity at 10 µM: 94.8%
FGFR1
  remaining activity at 10 µM: 68.8%
RAF1
  remaining activity at 10 µM: 94.2%
MEK3
  remaining activity at 10 µM: 87%
TGFBR2
  remaining activity at 10 µM: 91.5%
SIK1
  remaining activity at 10 µM: 99.8%
DYRK1B
  remaining activity at 10 µM: 88.5%
JAK3
  remaining activity at 10 µM: 98.8%
STK38/NDR1
  remaining activity at 10 µM: 90%
PDK1/PDHK1
  remaining activity at 10 µM: 101%
HIPK2
  remaining activity at 10 µM: 101%
YSK4/MAP3K19
  remaining activity at 10 µM: 100%
DYRK2
  remaining activity at 10 µM: 83.6%
CDK1/cyclin B
  remaining activity at 10 µM: 99.5%
PBK/TOPK
  remaining activity at 10 µM: 90.5%
CDK2/cyclin O
  remaining activity at 10 µM: 103%
TXK
  remaining activity at 10 µM: 73.7%
ABL2/ARG
  remaining activity at 10 µM: 89.2%
SGK2
  remaining activity at 10 µM: 77.6%
CDK8/cyclin C
  remaining activity at 10 µM: 92.9%
MSSK1/STK23
  remaining activity at 10 µM: 84.2%
STK16
  remaining activity at 10 µM: 109%
LATS2
  remaining activity at 10 µM: 45.3%
GSK3b
  remaining activity at 10 µM: 93.3%
TLK2
  remaining activity at 10 µM: 92.1%
AMPK(A2/B1/G1)
  remaining activity at 10 µM: 83.4%
IGF1R
  remaining activity at 10 µM: 94.6%
STK39/STLK3
  remaining activity at 10 µM: 98.7%
HCK
  remaining activity at 10 µM: 91%
CK2a
  remaining activity at 10 µM: 101%
PDGFRa
  remaining activity at 10 µM: 87.6%
TESK2
  remaining activity at 10 µM: 81.8%
ZIPK/DAPK3
  remaining activity at 10 µM: 68.5%
NEK7
  remaining activity at 10 µM: 118%
JNK3
  remaining activity at 10 µM: 92.2%
MST1/STK4
  remaining activity at 10 µM: 97.1%
